In PMC6848086, “Light on the cell cycle of the non-photosynthetic bacterium Ramlibacter tataouinensis” (Scientific Reports, 2019):

Target: T1, RtBphP2 (Ramlibacter tataouinensis, UniProt F5Y6C4)
T1 construct: gene Rta_28950; full-length; His6 tag (pBAD/HisB); co-expressed with Bradyrhizobium sp; ORS278 heme oxygenase in E. coli TOP10; dimer
Test: gel electrophoresis with zinc fluorescence; absorption spectra of purified holoprotein
Format: binding
Conditions: covalent; chromophore formed in E. coli by co-expressed heme oxygenase

T1 sequence (F5Y6C4 entry or part of it): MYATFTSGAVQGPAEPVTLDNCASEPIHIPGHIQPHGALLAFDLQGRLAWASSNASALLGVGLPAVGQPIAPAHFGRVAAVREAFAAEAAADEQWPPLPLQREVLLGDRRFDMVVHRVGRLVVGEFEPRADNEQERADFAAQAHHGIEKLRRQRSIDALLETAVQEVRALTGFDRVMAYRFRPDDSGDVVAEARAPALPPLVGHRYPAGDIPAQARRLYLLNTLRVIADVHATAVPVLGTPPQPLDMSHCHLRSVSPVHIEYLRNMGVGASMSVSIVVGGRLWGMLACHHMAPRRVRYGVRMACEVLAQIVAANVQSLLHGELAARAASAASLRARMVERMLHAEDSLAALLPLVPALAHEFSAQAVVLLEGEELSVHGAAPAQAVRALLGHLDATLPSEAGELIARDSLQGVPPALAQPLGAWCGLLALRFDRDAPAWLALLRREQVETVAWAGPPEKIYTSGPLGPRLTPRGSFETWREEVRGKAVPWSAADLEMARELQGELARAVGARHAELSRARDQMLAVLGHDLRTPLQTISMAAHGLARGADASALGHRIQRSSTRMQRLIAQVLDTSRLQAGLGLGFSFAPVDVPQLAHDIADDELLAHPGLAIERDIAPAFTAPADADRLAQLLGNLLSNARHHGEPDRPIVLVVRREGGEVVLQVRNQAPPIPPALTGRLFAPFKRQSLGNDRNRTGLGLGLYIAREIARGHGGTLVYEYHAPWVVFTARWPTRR

## C=CC1=C(C)/C(=C/C2=NC(=C\c3[nH]c(/C=C4\NC(=O)C(C)=C4C=C)c(C)c3CCC(=O)O)/C(CCC(=O)O)=C2C)NC1=O [biliverdin]
  gel electrophoresis with zinc fluorescence; absorption spectra of purified holop: zinc fluorescence demonstrated that the biliverdin (BV) is covalently bound in both proteins
